In PMC10819771 (Pharmaceuticals, 2023):

Tests used:
[1] = tested on: FdxT (DNA, hairpin, hexaethylene glycol linker between 10 and 11) TATAGCTATATATAGCTATA; assay: FRET melting; conditions: 10 mM K+, 90 mM Li+; 10 mM lithium cacodylate pH 7.2; 0.2 µM DNA, 2 µM compound
HeLa = assay: MTT antiproliferative assay, HeLa; type: cell-based, human; conditions: for IC50: Homo sapiens, HeLa, MTT, 72 h, cervical cancer cells, read-out: IC50 Values (μM) ± SEM HeLa; for Selectivity Index HEK293/HeLa: IC50 HEK293 / IC50 HeLa
Protocol: (§1) The growth-inhibitory effects of the compounds were determined by MTT (3-(4,5-dimethylthiazol-2-yl)-2,5-diphenyltetrazolium bromide) assay on selected cell lines, including HeLa and SiHa (cervical cancers), MDA-MB-231 and MCF-7 (breast cancers), and A2780 ovarian cancer cells. All cell lines were purchased from the European Collection of Cell Cultures (Salisbury, UK) except SiHa, which was obtained from the American Tissue Culture Collection (Manassas, VA, USA). The cells were kept in minimum essential medium supplemented with 10% fetal bovine serum, 1% non-essential amino acids, and 1% penicillin-streptomycin-amphotericin-B at 37 °C in a humidified atmosphere containing 5% CO2. Media and supplements were obtained from Lonza Group Ltd., (Basel, Switzerland). Cancer cells were seeded onto 96-well plates (5000 cells/well), after an overnight incubation the test compounds were added in six concentrations (0.1, 0.3, 1.0, 3.0, 10.0, 30.0 µM) and incubated for 72 h under cell-culture condition. After the incubation, 20 μL of 5 mg/mL MTT solution was added to each well and incubated for a further 4 h. The medium was removed, and the precipitated formazan crystals were dissolved in DMSO for 30 min under shaking at 37 °C. The absorbance was measured at 545 nm with a microplate reader. Untreated cells were included as controls. Calculations were performed by means of the GraphPad Prism 5.01 software (GraphPad Software Inc., San Diego, CA, USA). At least two independent determinations were performed with 5 parallel wells for each condition.

SiHa = assay: MTT antiproliferative assay, SiHa; type: cell-based, human; conditions: for IC50: Homo sapiens, SiHa, MTT, 72 h, cervical cancer cells, read-out: IC50 Values (μM) ± SEM SiHa; for Selectivity Index HEK293/SiHa: IC50 HEK293 / IC50 SiHa
Protocol: as §1

MCF-7 = assay: MTT antiproliferative assay, MCF-7; type: cell-based, human; conditions: for IC50: Homo sapiens, MCF7, 72 h, MTT, 72 h, breast cancer cells, read-out: IC50 Values (μM) ± SEM MCF-7; for Selectivity Index HEK293/MCF-7: IC50 HEK293 / IC50 MCF-7
Protocol: as §1

MDA-MB-231 = assay: MTT antiproliferative assay, MDA-MB-231; type: cell-based, human; conditions: for IC50: Homo sapiens, MDA-MB-231, 72 h, MTT, 72 h, breast cancer cells, read-out: IC50 Values (μM) ± SEM MDA-MB-231; for Selectivity Index HEK293/MDA-MB-231: IC50 HEK293 / IC50 MDA-MB-231
Protocol: as §1

A2780 = assay: MTT antiproliferative assay, A2780; type: cell-based, human; conditions: for IC50: Homo sapiens, A2780, MTT, 72 h, ovarian cancer cells, read-out: IC50 Values (μM) ± SEM A2780; for Selectivity Index HEK293/A2780: IC50 HEK293 / IC50 A2780
Protocol: as §1

K562 = assay: MTS cell proliferation assay, K562; type: cell-based, human; conditions: for IC50: Homo sapiens, K562, 72 h, MTS, 3-day incubation, leukemia cells, read-out: IC50 Values (μM) ± SEM K562; for Selectivity Index HEK293/K562: IC50 HEK293 / IC50 K562
Protocol: The human leukemic cell line K562 was grown in RPMI 1640 medium (Life Technology-Invitrogen by Thermo Fisher Scientific, Saint-Aubin, France) supplemented with 10% fetal calf serum (FCS), antibiotics (100 U/mL penicillin, 100 µg/mL streptomycin), and L-glutamine, (Eurobio, Les Ulis, France) at 37 °C, 5% CO2 in air. The MTS cell proliferation assay (Promega, Charbonnières-les-Bains, France) is a colorimetric assay system, which measures the transformation of a tetrazolium component (MTS) into formazan produced by the mitochondria of viable cells. Cells were washed twice in PBS (Phosphate Buffer Saline) and plated in quadruplicate into microtiter-plate wells in 100 μL culture media with or without our various compounds at increasing concentrations (0, 1, 5, 10, 20, and 50 μM) for 1, 2, and 3 days. After 3 h of incubation at 37 °C with 20 μL MTS/well, the plates were read using an ELISA microplate reader (Thermo, Electrocorporation, Waltham, MA, USA) at 490 nm. The amount of color produced was directly proportional to the number of viable cells. The results are expressed as the concentrations inhibiting cell growth by 50% after a 3-day incubation period. The 50% cytotoxic concentrations (CC50) were determined by linear regression analysis, expressed in μM ± SD (Microsoft Excel).

HEK293 = assay: MTT proliferation test on normal cells, HEK293; type: cell-based; conditions: Homo sapiens, normal epithelial cells, cytotoxicity, read-out: IC50 Values (μM) ± SEM HEK293
Protocol: The MTT proliferation test on the epithelial cell line HEK293 was performed as pre-viously described. The 50% inhibiting concentrations (IC50) were determined by linear regression analysis.

Fc-MYCT = assay: FRET-melting, Fc-MYCT; type: binding; conditions: ligand 2 μM, DNA 0.2 μM, K+ conditions, pH 7.2
Protocol: (§2) FRET-melting experiments were conducted on a Stratagene MX3005P (Thermo Fisher Scientific, Illkirch-Graffenstaden, France) real-time PCR equipment in 96-well plates on the DNA sequences reported in Table 4. Experiments were performed in 10 mM lithium cacodylate buffer (pH 7.2) and either 10 mM KCl and 90 mM LiCl (FK-RAST, FBCL-2T, F21T, and FdxT) or 1 mM KCl and 99 mM LiCl (Fc-MYCT) concentrations, depending on the Tm of the G4s alone. The DNA concentration was 0.2 µM. […] Data are presented as an average of three independent measurements, each conducted in duplicate conditions (λexc = 492 nm, λem = 516 nm, T interval = 25–95 °C, ramp: 25 °C for 5 min, then 1 °C/min, measurements every 1 °C, 8× magnification of the fluorescence signal).

FK-RAST = assay: FRET-melting, FK-RAST; type: binding; conditions: ligand 2 μM, DNA 0.2 μM, 10 mM KCl, 90 mM LiCl, pH 7.2
Protocol: as §2

FBCL-2T = assay: FRET-melting, FBCL-2T; type: binding; conditions: ligand 2 μM, DNA 0.2 μM, 10 mM KCl, 90 mM LiCl, pH 7.2
Protocol: as §2

FdxT = assay: FRET-melting, duplex control FdxT; type: binding; conditions: ligand 2 μM, DNA 0.2 μM, 10 mM KCl, 90 mM LiCl, pH 7.2, hairpin duplex
Protocol: as §2

telomerase = assay: Telomerase activity (TRAP assay) in MCF-7 cell lysates; type: biochemical, human; conditions: 5 µM compound, MCF-7 cell lysate
Protocol: Telomerase activity was assessed using the TRAP assay kit (TRAPeze® RT telomerase detection kit, Chemicon, Millipore Sigma S7700, Merck KGaA, Darmstadt, Germany) according to manufacturer’s instructions with some modifications. Briefly, […] in CHAPS lysis buffer and proteins were extracted. Protein extracts and various concentrations of compounds (0 to 5 µM) were used to extend a synthetic telomeric DNA using an enzymatic reaction (30 °C during 20 min), followed by a quantification of telomeric DNA using a telomeric PCR amplification: 95 °C for 3 min, 2 cycles of 95 °C for 20 s, and 49 °C for 20 s, followed by 30 cycles 95 °C for 20 s and 60 °C for 20 s with signal acquisition) in a Stratagene Mx3005P system (Agilent, Les Ulis, France) using specific telomeric PCR quantitative primers. Each sample was measured in technical duplicate with control DNA. For each drug and each dilution, we used biological triplicate of cell lysates.

[2] = tested on: human telomeric sequence F21T; assay: FRET-melting, F21T; type: binding; conditions: ligand 2 μM, DNA 0.2 μM, 10 mM KCl, 90 mM LiCl, pH 7.2
Protocol: as §2

ΔT1/2 [1] [°C]	Structure (SMILES)	IC50 (HeLa) [µM]	Selectivity Index HEK293/HeLa (HeLa)	IC50 (SiHa) [µM]	Selectivity Index HEK293/SiHa (SiHa)	IC50 (MCF-7) [µM]	Selectivity Index HEK293/MCF-7 (MCF-7)	IC50 (MDA-MB-231) [µM]	Selectivity Index HEK293/MDA-MB-231 (MDA-MB-231)	IC50 (A2780) [µM]	Selectivity Index HEK293/A2780 (A2780)	IC50 (K562) [µM]	Selectivity Index HEK293/K562 (K562)	IC50 (HEK293) [µM]	ΔT1/2 (°C) Fc-MYCT (Fc-MYCT) [°C]	ΔT1/2 (°C) FK-RAST (FK-RAST) [°C]	ΔT1/2 (°C) FBCL-2T (FBCL-2T) [°C]	ΔT1/2 (°C) FdxT (FdxT) [°C]	telomerase activity compared to control (telomerase)	ΔT1/2 (°C) F21T [2] [°C]
0.1 ± 0.2	CN1CCN(CCCNCc2ccc(-c3cc(-c4ccc(CNCCCN5CCN(C)CC5)cc4)c4cc(-c5ccccc5)ccc4n3)cc2)CC1																			
	CN(C)CCCNCc1ccc(-c2nc(-c3ccc(CNCCCN(C)C)cc3)c3ccc(-c4ccccc4)cc3n2)cc1 [Compound 12f, 2,4-bis{4-[(3-dimethylaminopropyl)aminomethyl]phenyl}-7-phenylquinazoline]	1.51 ± 0.09	>19.9	0.75 ± 0.1	>40.0	0.58 ± 0.08	>51.7	0.55 ± 0.01	>54.5	0.79 ± 0.19	>38.0	14 ± 0.3	>2.14	> 30	9.1 ± 1.4	20.1 ± 0.3	12.6 ± 0.6	2.4 ± 0.1	reduced drastically	
	CN(C)CCCCNCc1ccc(-c2nc(-c3ccc(CNCCCCN(C)C)cc3)c3ccc(-c4ccccc4)cc3n2)cc1 [Compound 12g, 2,4-bis{4-[(4-dimethylaminobutyl)aminomethyl]phenyl}-7-phenylquinazoline]	0.95 ± 0.51	4.19	0.52 ± 0.22	7.65	0.63 ± 0.35	6.32	0.67 ± 0.35	5.94	1.74 ± 0.89	2.29	12 ± 0.3	0.33	3.98 ± 0.12	14.7 ± 0.8	24.3 ± 1.1	17.5 ± 0.6	3.2 ± 0.3		19.2 ± 1.0
